According to patent US9670242B2, “Tetracyclic anthraquinone derivatives” (Tianjin Hemay Bio-Tech Co., Ltd, priority 2012, dated 2017):
One block for each compound: values may come before it.

Tests used:
[1] = system: NCI-H446 cells; assay: NCI-H446 cell growth inhibition test (MTT assay); assay type: cell-based, human; conditions: growth inhibition at 222 nM, 70 h
Procedure, shortened: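 Human small cell lung cancer cells in RPMI-1640 with 10% FBS were seeded at 4000 per well and treated with compound for 70 h at 37° C, 5% CO2. MTT at 0.5 mg/mL was added for 3 h, formazan was dissolved in DMSO and OD read at 490 nm. Inhibition ratio was calculated against untreated and blank wells.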

[2] = Solubility of the compound in water; assay type: physicochemical
[3] = system: mice of ICR strain; assay: Assay on MTD (maximum tolerated dose) in vivo of mice; conditions: for MTD: caudal vein injection, q4d×5 administration regimen; for Mortality Rate (%) / Number of Dead Animals ♂/♀: i.v., 5♂/5♀ per group; for Number of Dead Animals ♂/♀: 5 administrations
Procedure: Assay on MTD (Maxium Tolerated Dose) In Vivo of Mice
Assay on Maxium Tolerated Dose of Compound
Assay animals: mice of ICR strain with a weight of 18-22 g, purchased from Beijing Vital River Laboratories Limited, License SCXK (jing) 2007-0001.
Administration Regimen: each experimental animal was administered with corresponding dosage of tested substance once by injection of caudal vain every three days. Each dosage was initially designed as 5 times of administration. The specific time of administration depended on the conditions of the animals. It should be carefully observed the behavior conditions of the animals within 2 hours after administration. The animal's behavior was observed every 4 hours in the day of administration. The survival conditions and weight of animals were recorded every day and observed for whether abnormality occurred on the body surface thereof. The experimental animals were sacrificed on 14 day after administration and dissected for observation.
I group: (20 mg/kg) group;
II group: (25 mg/kg) group;
III group: (30 mg/kg) group;
IV group: solvent control group;
There were four groups in total. Each group consisted of five male mice and five female mice.
I group: (40 mg/kg) group;
II group: (45 mg/kg) group;
III group: (50 mg/kg) group;
IV group: (55 mg/kg) group;
V group: (60 mg/kg) group;
There were five groups in total. Each group consisted of six male mice and six female mice.
a represents that the experimental animal died immediately after the injection of drug rather than death caused by cytotoxicity.
I group: (30 mg/kg) group;
II group: (40 mg/kg) group;
IV group: (60 mg/kg) group;

[4] = system: NCI-446 cells; assay: NCI-446 cell growth inhibition test (MTT assay); assay type: cell-based, human; conditions: 72 h
Procedure: NCI-446 Cell Growth Inhibition Test (MTT Assay)
II. Reagents and Consumable Materials Culture medium: 90% RPMI1640+10% FBS (fetal calf serum); Pancreatin (0.25% (w/v) solution was formulated with PBS, 0.53 mM of EDTA was added in the formulation); PBS; 96-well culture plate.
(§1) 1. A plate (10 cm) of cells in logarithmic growth phase that were normally cultured was collected;
2. The culture solution was sucked out. The plate was washed with 5 ml of PBS once or twice;
3. PBS was sucked out. 1.5 mL of 0.25% pancreatin was added to the plate to infiltrate the cells for 1 min;
4. The culture plate was placed in an incubator. Digestion was carried out for about 3 min at 37° C.;
(§2) 5. 3 mL of complete culture solution was added to the culture plate to stop the digestion. The cells were carefully scoured with micropipette (1 mL) to give a uniform cell suspension. The suspension was implanted into a 96-well cell culture disc by 4000 cells/100 μL per well. The culture plate was incubated overnight under 5% CO2 at 37° C. In day 2, 100 μL of culture solution comprising a compound was added in each well. The plate was further incubated for 72 h under 5% CO2 at 37° C.;
6. The culture solution was sucked out;
7. 100 μL of serum-free culture solution containing 0.5 mg/mL MTT was added in each well. The plate was incubated for 3 h;
8. The culture solution was carefully sucked out;
9. […]
10. OD values were determined at 490 nM. […]

[5] = system: SK-Br-3 cells; assay: SK-Br-3 cell growth inhibition test (SRB assay); assay type: cell-based, human; conditions: 72 h
Procedure: SK-Br-3 Cell Growth Inhibition Test (SRB Assay)
II. Reagents and Consumable Materials
Culture medium: 85% DMEM+15% FBS; pancreatin (0.25% (w/v) solution was formulated with PBS, 0.53 mM of EDTA was added in the formulation); PBS; 96-well culture plate.
as §1
2. The culture solution was sucked out. The plate was washed with 5 mL of PBS once or twice;
3. 1.5 mL of 0.25% pancreatin was added to the plate to infiltrate the cells;
4. The pancreatin was sucked out. The culture plate was placed in an incubator. Digestion was carried out for about 2 min at 37° C.;
as §2, with “5. 4” for “5. 3”, “uniform single” for “uniform”, “culture plate” for “culture disc”, “by 10000” for “by 4000”
6. The culture solution was sucked out. 100 uL of TCA fixed cells which were diluted to 10% were added to each well. The plate was kept in a refrigerator for 1 h at 4° C.
7. TCA stationary liquid was sucked out. […]
13. OD values were determined at […]. […]

- solubility of the compound in water [2]: more than 7 mg/ml
Compound: CC(=O)O.COc1cccc2c1C(=O)c1c(O)c3c(c(O)c1C2=O)CC(O)(C(=O)COC(=O)CCC(=O)NCCCN1CCN(C)CC1)CC3O[C@H]1C[C@H](n2cccc2)[C@H](O)[C@H](C)O1 (stereo partly drawn) [Example 81, 10-((3′-(pyrrol-1-yll)-2′,3′,6′-trideoxy-alphal-l-lyxo-hexylpyranyl)oxy)-7,8,9,10-tetrahydro-6,8,11-trihydroxy-13-oxo-14-(4-((3-(4-methylpiperazin-1-yl)propyl)amino)-4-oxo-butyrato)-1-methoxy-5,12-naphthalenedione acetate]
- Inhibition Ratio (%) [1]: 56.8%

Compound: COc1cccc2c1C(=O)c1c(O)c3c(c(O)c1C2=O)CC(O)(C(=O)COC(=O)CCC(=O)NCCOCCO)CC3OC1CC(n2cccc2)C(O)C(C)O1 (stereo not drawn) [Example 62]
- Inhibition Ratio (%) [1]: 64.6%

Compound: COc1cccc2c1C(=O)c1c(O)c3c(c(O)c1C2=O)CC(O)(C(=O)COC(=O)CCC(=O)O)CC3OC1CC(n2cccc2)C(O)C(C)O1 (stereo not drawn) [Compound A, 3′-pyrrolyldoxorubicin-14-oxo-succinic acid monoester, reference compound]
- MTD [3]: approximately 30 mg/kg
- MTD ([3]; molar equivalent): ~0.0433 mmol/kg
- Mortality Rate (%) ([3]; 30 mg/kg, 5 administrations (total 150 mg/kg)): 10%
- Number of Dead Animals ♂/♀ ([3]; 30 mg/kg): 0/1
- Mortality Rate (%) ([3]; 40 mg/kg, 5 administrations (total 200 mg/kg)): 50%
- Number of Dead Animals ♂/♀ ([3]; 40 mg/kg): 3/2
- Mortality Rate (%) ([3]; 50 mg/kg, 5 administrations (total 250 mg/kg)): 100%
- Number of Dead Animals ♂/♀ ([3]; 50 mg/kg): 5/5
- Mortality Rate (%) ([3]; 60 mg/kg, 5 administrations (total 300 mg/kg)): 100%
- Number of Dead Animals ♂/♀ ([3]; 60 mg/kg): 5/5
- IC50 [4]: 234 nM
- IC50 [5]: 93 nM
